# Tests used:
# PDE9A = target: T1, PDE9A (Homo sapiens, UniProt O76083); test: Recombinant PDE activity, scintillation proximity assay: PDE9A; assay type: biochemical; settings: substrate cGMP
# T1 construct: the full-length open reading frames of PDE1C; made in house; host or cells: SF9 insect cells (baculovirus, Bac-To-Bac, pFastbac)
# From the text: For the preparation of human recombinant PDEs of interest, the Bac-To-Bac baculoviral expression system from Invitrogen (Carlsbad, CA, United States) was used according to the instruction manual. In short, the full-length open reading frames of PDE1C (National Center for Biotechnology Information Gene-Ref-Seq identifier NG_051183), PDE3A (NG_030033), PDE4A (NG_029594, AA 156–886), PDE4C (NG_029629), PDE7A (NG_029614), and PDE9A (NG_047067) were cloned into the plasmid vector pFastbac. For PDE4B and PDE4D, active site fragments were used (PDE4B NG_029038: AA 152–484, PDE4D NG_027957, AA 79–438). The plasmids were transformed into DH10Bac bacteria, SF9 insect cells were transfected with the bacmid DNA, and the resulting baculoviruses were stored and used for further rounds of infections. […] The protein content was measured and an equal volume of 87% (v/v) glycerol was added prior to freezing at −20°C. […] The reaction was stopped by addition of 50 µL of yttrium silicate scintillation proximity assay beads (17.8 mg/mL, 18 mM zinc sulfate in H2O) and the amount of produced [^3H]AMP/[^3H]GMP associated was determined using a Wallac Microbeta scintillation counter. […]
# Col1A1 mRNA expression = test: TGF-β-induced Col1A1 mRNA expression in IPF lung fibroblasts (Taqman); assay type: cell-based, human; settings: IPF-LF, TGF-β 4 ng/mL, 48 h; read-out: IC50 TGF-β-induced Col1 mRNA expression
# Protocol: Fibroblasts from donors with IPF (IPF-LF) (Asterand, Detroit, MI, United States) were grown in fibroblast basal medium (CC-3131, Lonza Walkersville, Inc., Walkersville, MD, United States) supplemented with FGM-2 SingleQuot Kit Supplements and Growth Factors (CC-4126, Lonza). Cells were grown in a humidified incubator at 37°C and 5% CO2. All assays were performed at passage 7 or 8. For assay set-up, cells were seeded in fibroblast growth medium plus supplements in assay-relevant densities. For TGF-β-stimulated assays, cells were seeded at 4,500 cells per well in 96-well plates. Proliferation assays were performed in 96-well plates at an initial seeding cell density on day 0 of 2,000 cells per well. After 24-h, the cell culture medium was changed to starvation medium (fibroblast basal medium without supplements). […]
# For determination of Col1A1, Col3A1, and FN mRNA expression, IPF-LF cells were stimulated with TGF-β (4 ng/mL) for 48 h. […] Quantitative real-time polymerase chain reactions were set up using the TaqMan™ Fast Advanced Master Mix (Applied Biosystems, Carlsbad, CA, United States) and species-specific gene expression assays: Col1A1 #Hs00164004_m1 FAM, Col3A1 #Hs0094309_m1 FAM, FN #Hs01549976_m1 FAM, 18S #4310893E. […] Fold-change of gene expression was calculated by the Viia7 software (regulation based upon housekeeper).
# T1 sequence (O76083 whole entry): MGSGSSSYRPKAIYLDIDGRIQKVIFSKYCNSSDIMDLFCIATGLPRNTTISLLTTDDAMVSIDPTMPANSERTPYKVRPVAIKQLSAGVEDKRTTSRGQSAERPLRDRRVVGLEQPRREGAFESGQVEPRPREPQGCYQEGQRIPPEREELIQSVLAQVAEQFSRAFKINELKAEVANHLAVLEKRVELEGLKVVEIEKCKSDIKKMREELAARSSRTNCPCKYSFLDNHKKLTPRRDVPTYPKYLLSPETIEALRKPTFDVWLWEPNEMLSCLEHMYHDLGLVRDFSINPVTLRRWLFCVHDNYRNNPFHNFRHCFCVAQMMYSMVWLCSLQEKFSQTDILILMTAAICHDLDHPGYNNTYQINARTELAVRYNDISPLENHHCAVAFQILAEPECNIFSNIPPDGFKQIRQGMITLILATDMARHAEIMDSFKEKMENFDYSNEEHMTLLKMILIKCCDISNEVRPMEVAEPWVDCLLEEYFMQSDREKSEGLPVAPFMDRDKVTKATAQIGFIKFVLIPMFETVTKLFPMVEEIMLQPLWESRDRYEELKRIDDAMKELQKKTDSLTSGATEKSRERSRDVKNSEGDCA
compound,measurement,setting,value
[O-][S+]1CCc2nc(N3CCC(c4ncc(Cl)cn4)CC3)nc(NC3(CO)CCC3)c21 (centres unmarked) [BI 1015550],IC50,PDE9A,> 100000 nM
same,IC50,Col1A1 mRNA expression,269 nM
